Experimental data: patent US20190142800A1, “SYNERGISTIC ANTIFUNGAL COMPOSITIONS AND METHODS THEREOF” (VYOME THERAPEUTICS LIMITED, priority 2016, published 2019)

System: Trichophyton rubrum (ATCC-28188)
Test: Checkerboard assay of fatty acid/ester with antifungals on Trichophyton rubrum (ATCC 28188)
Format: cell-based
Design: key to FIC index: FIC index = sum of FICs; FIC = agent conc in well / agent MIC
Settings: for Agent MIC: agent alone; for MIC: Trichophyton rubrum, ATCC28188, agent alone
Method: The synergy is measured by determining the fractional inhibitory concentration (FIC) value of the combination. This experimental set up, called checkerboard method, allows measurement of a desired effect (inhibition of fungal growth in this case) at different combinations of various concentrations of the two agents (antifungal agent and fatty acid/ester). […] No agent is added to the penultimate column on the right and the bottom row. The final column on the right is used for growth control (only inoculum in broth) and sterility control (broth alone, no inoculum). […] FIC value for each agent in a particular well of the checkerboard layout was calculated by dividing the agent concentration in that well by the established MIC value of the agent against the test organism (Hsieh et al., Synergy assessed by checkerboard: A critical Analysis, Diagn. Microbiol. Infect Dis. (1993) 16:343-349). FIC values for both agents in a particular well were calculated in this way followed by determination of the FIC index (sum of the FICs of each drug in the concerned well). […] Agents Chemother. (2010) 54(2): 602-609].
Using the checkerboard layout experimental setup described above (FIG. 1A), various medium-chain fatty acids were tested for their ability to potentiate the activity of a known antifungal agent. Concentrations above and below the MIC of each test agent were tested using serial dilution. The same procedure was expanded to test combinations of various medium-chain fatty acids C-1 to C-14 (such caprylic acid, undecylenic acid and lauric acid) and esters thereof, with antifungal agents from various classes including azoles, allylamines, benzylamines, zinc pyrithione and piroctone olamine against both susceptible and resistant Trichophyton spp. (filamentous fungus) and Candida spp. (yeast).
Potentiation of the activity of antimycotic agents using ester derivatives of medium chain fatty acids was tested in a standard, well accepted in vitro assay system to check for synergy. This experimental set up, called checkerboard method, allows measurement of a desired effect (inhibition of fungal growth in this case) at different combinations of various concentrations of two agents. A chosen medium chain fatty acid (C-1 to C-14) or its ester derivative was tested for its ability to potentiate the activity of a known antifungal agent (various classes) using the checkerboard layout. Various concentrations above and below the MIC of each test agent were tested using serial dilution in Sabouraud dextrose broth. […] FIC value for a drug in a particular well of the checkerboard layout is calculated by dividing the drug concentration in that well by the established MIC value of the drug against the test organism (Hsieh et al., Synergy assessed by checkerboard: A critical Analysis, Diagn. Microbiol. Infect Dis. (1993) 16:343-349). FIC values for both test agents in a particular well are calculated in this way followed by determination of the FIC index (sum of the FICs of each drug in the concerned well).

[1] = Table 2, propylene glycol monocaprylate series
[2] = Table 3, glyceryl monocaprylate series
[3] = agent's MIC in combination antifungal + caprylic acid (partner: other agent of same combination no.)
[4] = agent's MIC in combination antifungal + glyceryl monocaprylate (partner: other agent of same combination no.)
[5] = antifungal in combination with caprylic acid
[6] = antifungal in combination with glyceryl monocaprylate
[7] = antifungal in combination with propylene glycol monocaprylate
[8] = combination antifungal + caprylic acid
[9] = combination antifungal + glyceryl monocaprylate
[10] = agent's MIC in combination antifungal + propylene glycol monocaprylate (partner: other agent of same combination no.)
[11] = combination antifungal + propylene glycol monocaprylate
[12] = Table 4, undecylenic acid (C11) series
[13] = Table 6, propylene glycol monolaurate series
[14] = agent's MIC in combination antifungal + propylene glycol monolaurate (partner: other agent of same combination no.)
[15] = agent's MIC in combination antifungal + undecylenic acid (partner: other agent of same combination no.)
[16] = antifungal in combination with propylene glycol monolaurate
[17] = antifungal in combination with undecylenic acid
[18] = combination antifungal + propylene glycol monolaurate
[19] = combination antifungal + undecylenic acid
[20] = antifungal in combination with lauric acid

Row | Agent MIC [1] [µg/mL] | Combination MIC [3] [µg/mL] | Combination MIC [4] [µg/mL] | MIC (Table 1, caprylic acid series) [µg/mL] | MIC [1] [µg/mL] | MIC [2] [µg/mL] | Combination MIC [10] [µg/mL] | Combination MIC [14] [µg/mL] | Combination MIC [15] [µg/mL] | Compound | Agent MIC (Table 1, caprylic acid series) [µg/mL] | Agent MIC [2] [µg/mL] | FIC index [5] | Interaction [5] | FIC index [6] | Interaction [6] | FIC index [7] | Interaction [7] | FIC [8] | FIC [9] | FIC [11] | further results
1 | – | 16 | 2 | 64 | 64 | 64 | 0.125 | 0.125 | 16 | CC[C@H](C)C[C@H](C)CCCCCCCCC(=O)N[C@H]1C[C@@H](O)[C@@H](NCCN)NC(=O)[C@@H]2[C@@H](O)CCN2C(=O)[C@H]([C@H](O)CCN)NC(=O)[C@H]([C@H](O)[C@@H](O)c2ccc(O)cc2)NC(=O)[C@@H]2C[C@@H](O)CN2C(=O)[C@H]([C@@H](C)O)NC1=O [Caspofungin] | – | – | 0.75 | Synergistic (Combinations that gave FIC indices less than 1 were designated “synergistic”) | 0.531 | Synergistic (Combinations that gave FIC indices less than 1 were designated “synergistic”) | 0.252 | Synergistic (Combinations that gave FIC indices less than 1 were designated “synergistic”) | 0.25 | 0.031 | 0.002 | MIC [12]: 64 µg/mL; MIC [13]: 64 µg/mL; FIC index [16]: 0.502; Interaction [16]: Synergistic (Combinations that gave FIC indices less than 1 were designated “synergistic”); FIC index [17]: 0.5; Interaction [17]: Synergistic (Combinations that gave FIC indices less than 1 were designated “synergistic”); FIC [18]: 0.002; FIC [19]: 0.25
2 | 0.5 | – | – | – | – | – | 0.125 | 0.125 | 0.06 | C[C@@H]1[C@H](O)[C@@H](C)/C=C/C=C/C=C/C=C/C=C/C=C/C=C/[C@H](O[C@@H]2O[C@H](C)[C@@H](O)[C@H](N)[C@@H]2O)C[C@@H]2O[C@](O)(C[C@@H](O)C[C@@H](O)[C@H](O)CC[C@@H](O)C[C@@H](O)CC(=O)O[C@H]1C)C[C@H](O)[C@H]2C(=O)O [Amphotericin B] | – | – | – | – | – | – | 0.5 | Synergistic (Combinations that gave FIC indices less than 1 were designated “synergistic”) | – | – | 0.25 | Agent MIC [12]: 0.5 µg/mL; Agent MIC (Table 5, lauric acid (C12) series): 0.5 µg/mL; Agent MIC [13]: 0.5 µg/mL; Combination MIC (agent's MIC in combination antifungal + lauric acid (partner: other agent of same combination no.)): 0.125 µg/mL; FIC index [20]: 0.75; Interaction [20]: Synergistic (Combinations that gave FIC indices less than 1 were designated “synergistic”); FIC index [16]: 0.5; Interaction [16]: Synergistic (Combinations that gave FIC indices less than 1 were designated “synergistic”); FIC index [17]: 0.62; Interaction [17]: Synergistic (Combinations that gave FIC indices less than 1 were designated “synergistic”); FIC (combination antifungal + lauric acid): 0.25; FIC [18]: 0.25; FIC [19]: 0.12

Continued, compound first:

Row | Compound | Agent MIC [1] [µg/mL] | Combination MIC [3] [µg/mL] | Combination MIC [4] [µg/mL] | MIC (Table 1, caprylic acid series) [µg/mL] | MIC [1] [µg/mL] | MIC [2] [µg/mL] | Combination MIC [10] [µg/mL] | Combination MIC [14] [µg/mL] | Combination MIC [15] [µg/mL] | Agent MIC (Table 1, caprylic acid series) [µg/mL] | Agent MIC [2] [µg/mL] | FIC index [5] | Interaction [5] | FIC index [6] | Interaction [6] | FIC index [7] | Interaction [7] | FIC [8] | FIC [9] | FIC [11] | further results
3 | Zinc pyrithione | 3.125 | 0.195 | 0.195 | – | – | – | – | – | – | 3.125 | 3.125 | 0.19 | Synergistic (Combinations that gave FIC indices less than 1 were designated “synergistic”) | 0.3125 | Synergistic (Combinations that gave FIC indices less than 1 were designated “synergistic”) | 0.75 | Synergistic (Combinations that gave FIC indices less than 1 were designated “synergistic”) | 0.06 | 0.0625 | – | –
4 | Cc1cc(C2CCCCC2)n(O)c(=O)c1 [Ciclopirox] | – | 0.5 | 0.03 | 2 | 2 | 2 | 0.06 | – | – | – | – | 0.75 | Synergistic (Combinations that gave FIC indices less than 1 were designated “synergistic”) | 0.501 | Synergistic (Combinations that gave FIC indices less than 1 were designated “synergistic”) | 0.503 | Synergistic (Combinations that gave FIC indices less than 1 were designated “synergistic”) | 0.25 | 0.015 | 0.03 | –
5 | Cc1cc(CC(C)CC(C)(C)C)n(O)c(=O)c1.NCCO (stereo not shown) [Piroctone olamine] | 2.5 | 2 | 2 | – | – | – | – | – | – | 4 | 4 | 0.75 | Synergistic (Combinations that gave FIC indices less than 1 were designated “synergistic”) | 0.562 | Synergistic (Combinations that gave FIC indices less than 1 were designated “synergistic”) | – | Synergistic (Combinations that gave FIC indices less than 1 were designated “synergistic”) | 0.5 | 0.5 | – | –
